The subject of series [1] is T cells (CD4 and CD8 positive). In words: Bazedoxifene dose response, CD40L MFI in CD4 and CD8 positive T cells (day 4, freeze/thaw, restimulation). In kind it is cell-based. The note with it: T cells, Bazedoxifene dose response. The procedure: Dose response with Bazedoxifene in T cells were conducted for OT-001966, OT-001967, OT-001666. Expression of CD40L was measured at (a) day 4 after transduction, (b) after freezing and thawing the cells or (c) after freezing and thawing the cells followed by restimulation with CD3/CD28 beads. The CD40L MFI (median fluorescence intensity) within CD4 and CD8 positive subpopulations is shown in Table 34 and Table 35 respectively.

Another series concerns T cells. In words: Dose response of TMP, Bazedoxifene or Raloxifene, % CD40L positive T cells. Particulars: T cells expressing OT-001666. Format: cell-based. The procedure:
T cells were transduced with OT-001662 or OT-001666. On day 4, cells were treated with increasing doses of TMP for T cells expressing OT-001662. Cells expressing OT-001666 were treated either with increasing concentrations of Bazedoxifene or Raloxifene. The data are shown in Table 30 as the percentage of CD40L positive T cells.

In series [2] the test system is T cells (CD4+ and CD8+ subsets). In words: Vardenafil dose response of CD40L surface expression in T cells, CD4+ and CD8+ subsets. Format: cell-based. Also on record: key to SR: ratio of CD40L expression with vardenafil to expression without it. Particulars: OT-001892 transduced T cells. The procedure: T cells were transduced with 10 μL of lentivirus corresponding to OT-001892. 4 days after transduction, cells were treated with increasing concentrations of ligand (Vardenafil) or vehicle control for 24 hours. Surface expression of CD40L in T cells as well as the CD4+ and CD8+ subsets was analyzed by FACS. The stabilization ratio (SR) may be defined as the ratio of expression, CD40L in response to vardenafil to the expression of CD40L in the absence of vardenafil.

The target in another series is CD40 (UniProt P25942). In words: cell-based or functional assay.
Chain of CD40 (P25942 21-277 limits assumed): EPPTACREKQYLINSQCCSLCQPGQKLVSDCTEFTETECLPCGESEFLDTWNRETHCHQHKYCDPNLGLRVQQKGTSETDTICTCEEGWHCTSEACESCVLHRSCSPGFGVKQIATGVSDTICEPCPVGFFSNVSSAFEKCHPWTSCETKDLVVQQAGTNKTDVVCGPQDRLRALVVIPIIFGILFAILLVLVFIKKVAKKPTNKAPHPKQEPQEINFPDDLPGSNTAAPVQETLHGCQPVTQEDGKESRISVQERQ
For a further series, the system named is T cells (CD4 and CD8). In words: Cleavage resistant CD40L expression and TMP regulation in T cells. In kind it is cell-based. Particulars: T cells, 10 μM TMP 24 hours, CD4 and CD8 populations. The procedure: T cells were transduced with OT-001668 and on day 4, the percentage of CD40L expressing T cells (within the both CD4 and CD8) subpopulations was calculated.
T cells were transduced with ecDHFR regulated construct OT-001671 that include a CD40L protein that was resistant to cleavage. On day 4 cells were treated with 10 μM TMP for 24 hours. […] In an independent experiment, T cells transduced with varying volumes of virus corresponding to OT-001671 were treated with increasing doses of TMP for 24 hours. In Table 41, 0.5 μL, 2 μL, and 10 μL indicate the different volumes of virus that were used.

The mark [3] stands for this setting: All Cells, Vardenafil 0.0001 μM.
The mark [4] stands for this setting: CD4+ Cells, Vardenafil 0.0001 μM.
Where [5] appears, read: CD4+ Cells, Vardenafil 0.001 μM.
[6] abbreviates: CD8+ Cells, Vardenafil 0.0001 μM.
Setting [7] is: CD8+ Cells, Vardenafil 0.001 μM.

`Cc1c(-c2ccc(O)cc2)n(Cc2ccc(OCCN3CCCCCC3)cc2)c2ccc(O)cc12` [Bazedoxifene, reference compound]: the cell health entry in series [1] is “affected cell health at highest dose”.
As to `O=C(c1ccc(OCCN2CCCCC2)cc1)c1c(-c2ccc(O)cc2)sc2cc(O)ccc12` [Raloxifene], the “Percent of cells expressing CD40L” value in the series with T cells (Dose 0.0001 μM) was determined as 4.67%; in the series with T cells (Dose 0.001 μM), 5.01%; in the series with T cells (Dose 0.01 μM) it was 5%; in the series on T cells (Dose 0.1 μM) it was 5.18%; in the series with T cells (Dose 1 μM) it was 7.1%.
For the molecule `Cc1c(-c2ccc(O)cc2)n(Cc2ccc(OCCN3CCCCCC3)cc2)c2ccc(O)cc12` [Bazidoxefene], the “Percent of cells expressing CD40L” value in the series with T cells (Dose 0.0001 μM) is 4.88%; in the series with T cells (Dose 0.001 μM), 5.17%; with T cells (Dose 0.01 μM), 5.42%; in the series with T cells (Dose 0.1 μM), 7.67%; with T cells (Dose 1 μM), 13.5%.
Take `CCCc1nc(C)c2c(=O)[nH]c(-c3cc(S(=O)(=O)N4CCN(CC)CC4)ccc3OCC)nn12` [Vardenafil]: the MFI in series [2] (setting [3]) turned out to be 274; in series [2] (All Cells, Vardenafil 0.001 μM), 260; in series [2] (All Cells, Vardenafil 0.01 μM), 265; in series [2] (All Cells, Vardenafil 0.1 μM), 311; in series [2] (All Cells, Vardenafil 1 μM) it was 405; in series [2] (All Cells, Vardenafil 10 μM), 747. For the same molecule, the MFI was 1168 in series [2] (All Cells, Vardenafil 100 μM); 313 in series [2] (setting [4]); 291 in series [2] (setting [5]); 304 in series [2] (CD4+ Cells, Vardenafil 0.01 μM); 359 in series [2] (CD4+ Cells, Vardenafil 0.1 μM); 482 in series [2] (CD4+ Cells, Vardenafil 1 μM). The MFI in series [2] (CD4+ Cells, Vardenafil 10 μM) was determined as 930; in series [2] (CD4+ Cells, Vardenafil 100 μM), 1367; in series [2] (setting [6]), 166; in series [2] (setting [7]) it was 166; in series [2] (CD8+ Cells, Vardenafil 0.01 μM), 162; in series [2] (CD8+ Cells, Vardenafil 0.1 μM) it was 171. The MFI in series [2] (CD8+ Cells, Vardenafil 1 μM) is listed as 186; in series [2] (CD8+ Cells, Vardenafil 10 μM) it was 340; in series [2] (CD8+ Cells, Vardenafil 100 μM), 620. The SR in series [2] (setting [3]) was 1.31; in series [2] (All Cells, Vardenafil 0.001 μM), 1.24; in series [2] (All Cells, Vardenafil 0.01 μM), 1.27; in series [2] (All Cells, Vardenafil 0.1 μM), 1.49; in series [2] (All Cells, Vardenafil 1 μM) it was 1.94; in series [2] (All Cells, Vardenafil 10 μM), 3.57. Further, the SR in series [2] (All Cells, Vardenafil 100 μM) is recorded as 5.59; in series [2] (setting [4]) it was 1.38; in series [2] (setting [5]) it was 1.28; in series [2] (CD4+ Cells, Vardenafil 0.01 μM), 1.34; in series [2] (CD4+ Cells, Vardenafil 0.1 μM) it was 1.58; in series [2] (CD4+ Cells, Vardenafil 1 μM) it was 2.12. Moreover, the SR was determined as 4.10 in series [2] (CD4+ Cells, Vardenafil 10 μM); 6.02 in series [2] (CD4+ Cells, Vardenafil 100 μM); 1.15 in series [2] (setting [6]); 1.15 in series [2] (setting [7]); 1.13 in series [2] (CD8+ Cells, Vardenafil 0.01 μM); 1.19 in series [2] (CD8+ Cells, Vardenafil 0.1 μM). For the same molecule, the SR is recorded as 1.29 in series [2] (CD8+ Cells, Vardenafil 1 μM); 2.36 in series [2] (CD8+ Cells, Vardenafil 10 μM); 4.31 in series [2] (CD8+ Cells, Vardenafil 100 μM).
In the series with CD40, “OT-001662 (Met; Linker (SG); ecDHFR (M1del, R12Y, Y100I); Histidine residue; CD40L; stop) (ligand)” gave an IFNg (pg/ml), 2-day co-culture of transduced T cells with mDC, DMSO (DRD not stabilised) of 3790 pg/mL; an IFNg (pg/ml), 2-day co-culture of transduced T cells with mDC, TMP (0.1 µM) of 7430 pg/mL; an IFNg (pg/ml), 2-day co-culture of transduced T cells with mDC, TMP (0.5 µM) of 3590 pg/mL; an IFNg (pg/ml), 2-day co-culture of transduced T cells with mDC, TMP (2 µM) of 16400 pg/mL. In the series with CD40, this molecule had an IFNg (pg/ml), 2-day co-culture of transduced T cells with mDC, TMP (10 µM) of 13500 pg/mL; an IL12 (pg/ml), 2-day co-culture of transduced T cells with mDC, DMSO (DRD not stabilised) of 0.254 pg/mL; an IL12 (pg/ml), 2-day co-culture of transduced T cells with mDC, TMP (0.1 µM) of 0.0705 pg/mL; an IL12 (pg/ml), 2-day co-culture of transduced T cells with mDC, TMP (2 µM) of 19.4 pg/mL. In addition, in the series with CD40, the IL12 (pg/ml), 2-day co-culture of transduced T cells with mDC, TMP (10 µM) was 59.3 pg/mL; the SEAP reporter of HEK-Blue CD40 cells co-cultured 24 hours with transduced Jurkat cells plus 50 µM TMP, given as Soluble CD40L (pg/ml) against a recombinant soluble CD40L standard was determined as 8660 pg/mL; the TNFa (pg/ml), 2-day co-culture of transduced T cells with mDC, DMSO (DRD not stabilised) turned out to be 82.3 pg/mL; the TNFa (pg/ml), 2-day co-culture of transduced T cells with mDC, TMP (0.1 µM) was determined as 131 pg/mL. For the same molecule, in the series with CD40, the TNFa (pg/ml), 2-day co-culture of transduced T cells with mDC, TMP (0.5 µM) worked out at 83.9 pg/mL; the TNFa (pg/ml), 2-day co-culture of transduced T cells with mDC, TMP (2 µM) stood at 249 pg/mL; the TNFa (pg/ml), 2-day co-culture of transduced T cells with mDC, TMP (10 µM) is 251 pg/mL.

B1: OT-001671: ecDHFR regulated construct that includes a CD40L protein resistant to cleavage (protein)
chain: MSGISLIAALAVDYVIGMENAMPWNLPADLAWFKRNTLNKPVIMGRHTWESIGRPLPGRKNIILSSQPGTDDRVTWVKSVDEAIAACGDVPEIMVIGGGRVIEQFLPKAQKLYLTHIDAEVEGDTHFPDYEPDDWESVFSEFHDADAQNSHSYCFEILERRHMIETYNQTSPRSAATGLPISMKIFMYLLTVFLITQMIGSALFAVYLHRRLDKIEDERNLHEDFVFMKTIQRCNTGERSLSLLNCEEIKSQFEGFVKDIMLNKEETKKENDQNPQIAAHVISEASSKTTSVLQWAEKGYYTMSNNLVTLENGKQLTVKRQGLYYIYAQVTFCSNREASSQAPFIASLCLKSPGRFERILLRAANTHSSAKPCGQQSIHLGGVFELQPGASVFVNVTDPSQVSHGTGFTSFGLLKL
Take B1: the “TMP-mediated regulation of CD40L expression” value in the series on T cells (CD4 and CD8) is “TMP-mediated Regulation of CD40L expression was observed”.

These data come from patent US20220175781A1, “CD40L COMPOSITIONS AND METHODS FOR TUNABLE REGULATION” (Obsidian Therapeutics, Inc., priority 2019, published 2022).
